# *1 amine or outer side, *2 acyl side, *3 side chain or, on linkers, in order; H or OH if unused. Where a SMILES comes first, the peptide text is derived from it. Bridges are numbered along the chain shown (N, C = ends). [ ]: non-standard residue; d: D form. The star is where a group is joined. hPhe(3-Cl-4-CF3) = N[C@@H](CCc1ccc(C(F)(F)F)c(Cl)c1)C(=O)O; NPrPhe(4-CF3) = CCCN[C@@H](Cc1ccc(C(F)(F)F)cc1)C(=O)O; X46 = C=CCCN([C@@H](Cc1ccc(C)cc1)C(=O)[*:2])[*:1]; NMeGly(cPent) = CN[C@H](C(=O)O)C1CCCC1; NMeD = CN[C@@H](CC(=O)O)C(=O)O; NMeL = CN[C@@H](CC(C)C)C(=O)O; Morpholide = C1CN(*)CCO1; NMeA = CN[C@@H](C)C(=O)O; Ac5c = NC1(C(=O)O)CCCC1; Aze = O=C(O)[C@@H]1CCN1; Aib = CC(C)(N)C(=O)O; Sar = CNCC(=O)O
# What was measured:
# [1] = tested on: human lung cancer strain NCI-H441; type: cell-based
# In short: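 Readout: […] after the ATP-based reagent. Compound: serial dilutions in dimethyl sulfoxide.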
# HRAS wild-type protein = HRAS wild-type protein (Homo sapiens, UniProt P01112); experiment: Binding to HRAS by surface plasmon resonance (SPR), KD and KD ratio to KRAS
# HRAS wild-type protein, sequence (P01112 whole entry): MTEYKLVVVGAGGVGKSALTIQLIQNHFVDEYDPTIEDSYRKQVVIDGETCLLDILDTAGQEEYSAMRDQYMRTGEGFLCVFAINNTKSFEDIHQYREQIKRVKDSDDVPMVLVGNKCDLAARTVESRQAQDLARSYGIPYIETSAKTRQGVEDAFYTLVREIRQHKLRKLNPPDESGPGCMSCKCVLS
# In short: (§1)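 GDP-bound biotin-Avi RAS captured at ~100–300 RU, 30°C, pH 7.4 HBS containing 10 µM GDP, 10 mM MgCl2, 1 mM DTT, 0.01% Tween 20 and 4% DMSO. KD by 1:1 fitting.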
# [2] = target: GDP-bound NRAS wild-type protein (Homo sapiens, UniProt P01111); experiment: Binding to NRAS by surface plasmon resonance (SPR), KD and KD ratio to KRAS
# GDP-bound NRAS wild-type protein, sequence (P01111 whole entry): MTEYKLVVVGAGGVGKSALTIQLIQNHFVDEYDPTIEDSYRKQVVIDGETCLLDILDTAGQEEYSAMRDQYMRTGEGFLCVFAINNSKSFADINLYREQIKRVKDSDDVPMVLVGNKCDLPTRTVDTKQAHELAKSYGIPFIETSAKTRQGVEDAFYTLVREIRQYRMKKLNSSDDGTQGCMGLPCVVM
# In short: as §1
# [3] = ratio of the KD value with respect to HRAS wild-type protein to the KD value with respect to KRAS
# [4] = ratio of the KD value with respect to GDP-bound NRAS wild-type protein to the KD value with respect to KRAS
# [5] = ratio of KD for HRAS wild-type protein to KD for KRAS
# [6] = ratio of KD for GDP-bound NRAS wild-type protein to KD for KRAS
IC50 [1],SMILES,HRAS /KRAS (HRAS wild-type protein; [3]),"NRAS /KRAS [2, 4]",HRAS /KRAS (HRAS wild-type protein; [5]),"NRAS /KRAS [2, 6]"
4.7 nM,CCC[C@H]1C(=O)N[C@@H]([C@@H](C)CC)C(=O)N(C2CC2)CC(=O)N(C)[C@H]2C/C=C\CCN(C2=O)[C@@H](Cc2ccc(C)cc2)C(=O)N(C)CC(=O)N[C@@H](CCc2ccc(C(F)(F)F)c(OC)c2)C(=O)N2C[C@H](OCC)C[C@H]2C(=O)N(C)C2(CCC2)C(=O)N(C)[C@@H](C2CCCC2)C(=O)N(C)[C@H](C(=O)N2CCCC2)CC(=O)N1C [PP3098],,,A (a compound having 10 or more and less than 20 is denoted as A),A (a compound having 10 or more and less than 20 is denoted as A)
27.6 nM,CCC[C@@H]1C[C@H]2C(=O)NC3(CCC3)C(=O)N(C)[C@@H](C3CCCC3)C(=O)N(C)[C@H](C(=O)N(C)C)CC(=O)N(C)[C@@H](CC)C(=O)N[C@@H]([C@@H](C)CC)C(=O)N(C)CC(=O)N(C)[C@H]3C/C=C\CCN(C3=O)[C@@H](Cc3ccc(C)cc3)C(=O)N(C)CC(=O)N[C@@H](CCc3cc(F)c(C(F)(F)F)c(F)c3)C(=O)N2C1 [PP2233],A (a compound having 10 or more and less than 20 is denoted as A),A (a compound having 10 or more and less than 20 is denoted as A),,
21 nM,CCO[C@@H]1C[C@H]2C(=O)NC3(CC(C)(C)C3)C(=O)N(C)[C@@H](C3CCCC3)C(=O)N(C)[C@H](C(=O)N(C)CC)CC(=O)N(C)[C@@H](CC(C)C)C(=O)N[C@@H]([C@@H](C)CC)C(=O)N(C)CC(=O)N(C)[C@H]3C/C=C\CCN(C3=O)[C@@H](Cc3ccc(C(F)F)cc3)C(=O)N(C)CC(=O)N[C@@H](CCc3ccc(Cl)c(Cl)c3)C(=O)N2C1 [PP2827],,,B (a compound having 3 or more and less than 10 is denoted as B),A (a compound having 10 or more and less than 20 is denoted as A)

# Continued, molecule first:
SMILES,IC50 [1],HRAS /KRAS (HRAS wild-type protein; [3]),"NRAS /KRAS [2, 4]",HRAS /KRAS (HRAS wild-type protein; [5]),"NRAS /KRAS [2, 6]"
CCCN1CC(=O)N(C)[C@H]2C/C=C\CCN(C2=O)[C@@H](Cc2ccc(C)cc2)C(=O)N(C)CC(=O)N[C@@H](CCc2ccc(C(F)(F)F)c(OC)c2)C(=O)N2C[C@H](OCC)C[C@H]2C(=O)NC2(CC(C)(C)C2)C(=O)N(C)[C@@H](C2CCCC2)C(=O)N(C)[C@H](C(=O)N(C)C)CC(=O)N(C)[C@@H](CC)C(=O)N[C@@H]([C@@H](C)CC)C1=O [PP2096],10.7 nM,A (a compound having 10 or more and less than 20 is denoted as A),A (a compound having 10 or more and less than 20 is denoted as A),,
CCO[C@@H]1C[C@H]2C(=O)NC3(CC(C)(C)C3)C(=O)N(C)[C@@H](C(CC)CC)C(=O)N(C)[C@H](C(=O)N(C)C)CC(=O)N(C)[C@@H](C)C(=O)N[C@@H]([C@@H](C)CC)C(=O)N(C)CC(=O)N(C)[C@H]3C/C=C\CCN(C3=O)[C@@H](Cc3ccc(C)cc3)C(=O)N(C)CC(=O)N[C@@H](CCc3ccc(Cl)c(Cl)c3)C(=O)N2C1 [PP2186],33.7 nM,A (a compound having 10 or more and less than 20 is denoted as A),AA (a compound having 20 or more is denoted as AA),,
C=CCCN1C(=O)CN(C)C(=O)CN(C)C(=O)[C@H]([C@@H](C)CC)NC(=O)[C@H](CC(C)C)N(C)C(=O)C[C@@H](C(=O)N2CCOCC2)N(C)C(=O)[C@H](C2CCCC2)N(C)C(=O)C2(CCCC2)NC(=O)[C@@H]2CCCN2C(=O)[C@H](CCc2ccc(C(F)(F)F)c(Cl)c2)NC(=O)CN(C)C(=O)[C@@H]1Cc1ccc(C)cc1 [PP0101] ([NMeL]I[Sar][Sar][X46][Sar][hPhe(3-Cl-4-CF3)]P[Ac5c][NMeGly(cPent)][NMeD]-Morpholide; lactam N-11),10.4 nM,,,C (A compound having a KD ratio of 0.1 or more and less than 3 is denoted as C),B (a compound having 3 or more and less than 10 is denoted as B)
CCCN1C(=O)[C@@H]2CCN2C(=O)[C@H](C)N(C)C(=O)[C@H]([C@@H](C)CC)NC(=O)[C@H](CC(C)C)N(C)C(=O)C[C@@H](C(=O)N2CCOCC2)N(C)C(=O)[C@H](C2CCCC2)N(C)C(=O)C(C)(C)NC(=O)[C@@H]2CCCN2C(=O)[C@H](CCc2ccc(C(F)(F)F)c(Cl)c2)NC(=O)CN(C)C(=O)[C@@H]1Cc1ccc(C(F)(F)F)cc1 [PP0225] ([NMeL]I[NMeA][Aze][NPrPhe(4-CF3)][Sar][hPhe(3-Cl-4-CF3)]P[Aib][NMeGly(cPent)][NMeD]-Morpholide; lactam N-11),2.4 nM,,,C (A compound having a KD ratio of 0.1 or more and less than 3 is denoted as C),C (A compound having a KD ratio of 0.1 or more and less than 3 is denoted as C)
CC[C@H](C)[C@@H]1NC(=O)[C@H](CC(C)C)N(C)C(=O)C[C@@H](C(=O)N2CCOCC2)N(C)C(=O)[C@H](C2CCCC2)N(C)C(=O)C2(CCCC2)NC(=O)[C@@H]2CCCN2C(=O)[C@H](CCc2cc(F)c(C(F)(F)F)c(F)c2)NC(=O)CN(C)C(=O)[C@H](Cc2ccc(C(F)(F)F)cc2)N2CCCC[C@@H](C2=O)N(C)C(=O)CN(C)C1=O [PP0552],2.8 nM,B (a compound having 3 or more and less than 10 is denoted as B),B (a compound having 3 or more and less than 10 is denoted as B),,
